Test results reported in ChEMBL document CHEMBL6114993, “Thienopyrimidine: A promising scaffold in the development of kinase inhibitors with anticancer activities” (Bioorg Med Chem, 2025).
Each block holds one compound with its values, some of them ahead of it.

Assays:
HUVEC = assay: Antiproliferative activity against HUVEC cells assessed as reduction in cell viability at 10 uM by alamar blue reagent based assay relative to control; type: functional; details: Homo sapiens
Ehrlich = assay: Antitumor activity against mouse Ehrlich carcinoma cell implanted in Swiss albino mouse model assessed as tumour growth inhibition at 10 mg/kg, po administered consecutively for 8 days relative to control; type: functional; details: 192 h, time 8 day, read-out: TGI
[1] = target: Vascular endothelial growth factor receptor 2 (Homo sapiens) (UniProt P35968); assay: Inhibition of N-terminal GST-tagged human recombinant VEGFR2 extracted from Sf9 cells at 10 uM relative to control; type: cell-free
[2] = target: Epidermal growth factor receptor (Homo sapiens) (UniProt P00533); assay: Inhibition of human recombinant EGFR at 10 uM relative to control
[3] = target: Receptor tyrosine-protein kinase erbB-2 (Homo sapiens) (UniProt P04626); assay: Inhibition of human recombinant HER-2 at 10 uM relative to control
[4] = target: T1, Fas-activated serine/threonine kinase (Homo sapiens, UniProt Q14296); assay: Inhibition of […] human FASTK (355 to 444 residues) extracted from Escherichia coli BL21 (DE3) by Malachite Green dye based assay
T1 sequence (Q14296 whole entry): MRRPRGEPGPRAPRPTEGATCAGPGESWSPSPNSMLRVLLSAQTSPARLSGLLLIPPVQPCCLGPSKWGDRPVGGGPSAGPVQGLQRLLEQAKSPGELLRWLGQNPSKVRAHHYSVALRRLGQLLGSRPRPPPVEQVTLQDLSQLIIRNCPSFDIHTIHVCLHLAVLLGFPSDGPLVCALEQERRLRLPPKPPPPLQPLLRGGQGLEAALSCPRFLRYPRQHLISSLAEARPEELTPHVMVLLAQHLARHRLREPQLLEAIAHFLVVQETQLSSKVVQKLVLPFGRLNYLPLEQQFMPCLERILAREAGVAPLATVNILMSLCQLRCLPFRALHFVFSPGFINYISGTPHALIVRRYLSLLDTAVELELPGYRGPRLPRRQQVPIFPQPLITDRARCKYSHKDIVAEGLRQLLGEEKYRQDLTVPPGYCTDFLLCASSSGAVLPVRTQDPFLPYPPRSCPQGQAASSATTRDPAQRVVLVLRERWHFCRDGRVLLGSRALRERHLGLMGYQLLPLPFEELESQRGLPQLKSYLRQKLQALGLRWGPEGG

MCF7 = assay: Antiproliferative activity against human MCF7 cells assessed as reduction in cell viability incubated for 48 hrs by MTT assay; type: functional, cell-based; details: MCF7, 48 h
SK-OV-3 = assay: Antiproliferative activity against human SK-OV-3 cells overexpressing EGFR/HER-2 assessed as inhibition of cell growth at 10 uM relative to control; type: functional
MDA-MB-468 = assay: Antiproliferative activity against human MDA-MB-468 cells overexpressing EGFR/HER-2 assessed as inhibition of cell growth at 10 uM relative to control; type: functional
NCI-H522 = assay: Antiproliferative activity against human NCI-H522 cells overexpressing EGFR/HER-2 assessed as inhibition of cell growth at 10 uM relative to control; type: functional

Epidermal growth factor receptor (Homo sapiens), sequence (P00533 whole entry): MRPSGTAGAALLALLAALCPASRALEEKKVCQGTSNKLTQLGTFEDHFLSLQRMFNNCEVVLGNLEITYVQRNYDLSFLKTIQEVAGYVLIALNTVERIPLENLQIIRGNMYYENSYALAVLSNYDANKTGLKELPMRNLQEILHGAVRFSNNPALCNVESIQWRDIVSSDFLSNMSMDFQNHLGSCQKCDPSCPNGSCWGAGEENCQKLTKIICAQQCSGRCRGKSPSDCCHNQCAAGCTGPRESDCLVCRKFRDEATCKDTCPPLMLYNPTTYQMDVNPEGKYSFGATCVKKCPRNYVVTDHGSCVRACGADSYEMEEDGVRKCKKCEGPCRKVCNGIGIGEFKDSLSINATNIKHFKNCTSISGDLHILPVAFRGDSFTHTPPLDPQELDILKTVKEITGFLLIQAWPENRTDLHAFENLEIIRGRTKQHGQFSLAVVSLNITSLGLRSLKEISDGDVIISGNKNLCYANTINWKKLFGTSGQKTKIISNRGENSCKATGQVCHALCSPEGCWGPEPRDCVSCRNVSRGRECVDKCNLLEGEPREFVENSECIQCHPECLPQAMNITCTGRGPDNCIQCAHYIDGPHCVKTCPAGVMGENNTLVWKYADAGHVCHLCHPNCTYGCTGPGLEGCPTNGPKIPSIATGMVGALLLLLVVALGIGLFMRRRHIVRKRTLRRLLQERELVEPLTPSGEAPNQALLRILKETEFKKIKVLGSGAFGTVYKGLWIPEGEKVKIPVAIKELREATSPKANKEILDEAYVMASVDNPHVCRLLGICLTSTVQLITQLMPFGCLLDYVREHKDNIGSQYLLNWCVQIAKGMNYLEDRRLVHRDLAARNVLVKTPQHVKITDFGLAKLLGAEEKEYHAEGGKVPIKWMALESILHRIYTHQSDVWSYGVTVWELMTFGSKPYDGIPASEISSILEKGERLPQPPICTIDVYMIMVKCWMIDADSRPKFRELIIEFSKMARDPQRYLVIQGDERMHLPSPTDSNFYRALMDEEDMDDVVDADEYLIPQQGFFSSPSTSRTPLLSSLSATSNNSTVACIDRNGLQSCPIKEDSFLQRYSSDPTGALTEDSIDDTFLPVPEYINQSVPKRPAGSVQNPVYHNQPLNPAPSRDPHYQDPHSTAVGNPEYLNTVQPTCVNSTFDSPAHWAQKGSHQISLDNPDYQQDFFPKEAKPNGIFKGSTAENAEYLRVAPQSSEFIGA
Receptor tyrosine-protein kinase erbB-2 (Homo sapiens), sequence (P04626 whole entry, the tested form may be a part): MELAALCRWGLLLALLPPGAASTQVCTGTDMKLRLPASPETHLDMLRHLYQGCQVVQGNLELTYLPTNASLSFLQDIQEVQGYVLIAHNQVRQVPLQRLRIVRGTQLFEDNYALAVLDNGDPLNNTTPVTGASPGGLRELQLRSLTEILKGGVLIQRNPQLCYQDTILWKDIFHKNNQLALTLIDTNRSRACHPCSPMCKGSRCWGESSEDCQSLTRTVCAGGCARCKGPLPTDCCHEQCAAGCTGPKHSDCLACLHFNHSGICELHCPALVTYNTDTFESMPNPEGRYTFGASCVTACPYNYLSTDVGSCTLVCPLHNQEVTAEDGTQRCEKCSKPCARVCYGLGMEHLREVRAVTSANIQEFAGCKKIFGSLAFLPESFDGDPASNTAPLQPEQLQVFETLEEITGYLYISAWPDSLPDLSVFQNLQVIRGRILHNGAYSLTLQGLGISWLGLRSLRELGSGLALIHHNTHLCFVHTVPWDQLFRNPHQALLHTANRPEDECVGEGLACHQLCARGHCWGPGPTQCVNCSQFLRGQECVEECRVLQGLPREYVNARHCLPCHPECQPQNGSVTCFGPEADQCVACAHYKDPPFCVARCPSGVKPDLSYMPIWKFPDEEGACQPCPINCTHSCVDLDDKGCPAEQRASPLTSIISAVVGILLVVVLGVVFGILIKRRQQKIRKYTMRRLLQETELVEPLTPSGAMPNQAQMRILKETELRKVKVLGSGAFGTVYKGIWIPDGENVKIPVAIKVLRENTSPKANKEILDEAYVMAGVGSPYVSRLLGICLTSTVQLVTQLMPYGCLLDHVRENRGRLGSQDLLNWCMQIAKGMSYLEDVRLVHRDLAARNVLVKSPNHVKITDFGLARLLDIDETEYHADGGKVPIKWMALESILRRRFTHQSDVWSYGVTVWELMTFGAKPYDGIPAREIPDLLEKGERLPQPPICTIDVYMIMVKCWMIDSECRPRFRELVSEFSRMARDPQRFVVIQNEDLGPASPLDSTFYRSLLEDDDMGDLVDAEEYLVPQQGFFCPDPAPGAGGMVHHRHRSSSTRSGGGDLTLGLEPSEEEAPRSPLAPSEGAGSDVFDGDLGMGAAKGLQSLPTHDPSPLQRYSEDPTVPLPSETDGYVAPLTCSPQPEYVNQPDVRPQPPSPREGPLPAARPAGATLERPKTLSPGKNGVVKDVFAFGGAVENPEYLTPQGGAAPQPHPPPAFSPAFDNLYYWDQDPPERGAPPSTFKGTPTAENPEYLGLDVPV
Vascular endothelial growth factor receptor 2 (Homo sapiens), sequence (P35968 whole entry): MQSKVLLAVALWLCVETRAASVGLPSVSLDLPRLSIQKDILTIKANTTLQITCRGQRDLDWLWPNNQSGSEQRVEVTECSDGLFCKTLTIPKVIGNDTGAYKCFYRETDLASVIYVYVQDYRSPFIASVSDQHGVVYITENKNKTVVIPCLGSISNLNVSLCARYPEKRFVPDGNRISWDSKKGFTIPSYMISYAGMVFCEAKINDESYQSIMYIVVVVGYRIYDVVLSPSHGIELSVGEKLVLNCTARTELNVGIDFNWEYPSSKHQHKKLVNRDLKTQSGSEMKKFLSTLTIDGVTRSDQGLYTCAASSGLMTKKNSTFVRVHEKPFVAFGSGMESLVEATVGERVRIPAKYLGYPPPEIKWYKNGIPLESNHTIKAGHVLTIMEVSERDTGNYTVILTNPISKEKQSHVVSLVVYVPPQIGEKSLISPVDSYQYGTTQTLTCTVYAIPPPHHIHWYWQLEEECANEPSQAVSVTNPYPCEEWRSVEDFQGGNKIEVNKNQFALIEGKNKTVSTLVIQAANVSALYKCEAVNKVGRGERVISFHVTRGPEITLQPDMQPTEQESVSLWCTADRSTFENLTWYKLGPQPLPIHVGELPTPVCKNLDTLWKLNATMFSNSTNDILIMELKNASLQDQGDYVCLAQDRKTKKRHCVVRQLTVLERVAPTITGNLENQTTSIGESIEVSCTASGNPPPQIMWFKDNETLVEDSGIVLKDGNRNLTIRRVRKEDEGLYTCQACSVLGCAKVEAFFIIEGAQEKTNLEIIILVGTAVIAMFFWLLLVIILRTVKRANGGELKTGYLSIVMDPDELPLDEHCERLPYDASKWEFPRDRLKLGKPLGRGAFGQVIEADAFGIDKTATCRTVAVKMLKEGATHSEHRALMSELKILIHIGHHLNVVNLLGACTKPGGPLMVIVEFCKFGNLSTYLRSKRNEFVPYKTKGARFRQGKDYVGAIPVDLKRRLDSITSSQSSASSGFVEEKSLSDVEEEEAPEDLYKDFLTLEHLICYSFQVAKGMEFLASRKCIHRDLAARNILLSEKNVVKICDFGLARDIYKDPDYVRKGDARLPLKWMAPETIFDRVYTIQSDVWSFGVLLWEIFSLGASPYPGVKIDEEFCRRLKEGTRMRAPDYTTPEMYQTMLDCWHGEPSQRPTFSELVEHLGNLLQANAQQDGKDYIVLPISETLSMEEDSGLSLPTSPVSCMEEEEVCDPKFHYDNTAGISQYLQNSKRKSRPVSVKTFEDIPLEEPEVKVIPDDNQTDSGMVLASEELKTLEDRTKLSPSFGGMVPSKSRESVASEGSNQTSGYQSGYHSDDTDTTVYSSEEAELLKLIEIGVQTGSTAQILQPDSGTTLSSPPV

Compound: Cc1ccc(NC(=O)Nc2ccc(Oc3ncnc4sc5c(c34)CCCC5)cc2)cc1Cl
inhibition at 10 µM (HUVEC): 46%
inhibition in vivo at 10 mg/kg (Ehrlich): 82.7%

Compound: COc1cccc(NC(=O)Nc2ccc(Oc3ncnc4sc5c(c34)CCCC5)cc2)c1
inhibition at 10 µM (HUVEC): 79.2%

Compound: Fc1ccc(COc2ccc(Nc3ncnc4sc5c(c34)CCCC5)cc2Cl)cc1
inhibition [2]: 93%
inhibition [3]: 84%

Compound: Clc1cc(Nc2ncnc3sc4c(c23)CCCC4)ccc1OCc1ccccc1
inhibition [2]: 93%
inhibition [3]: 84%

Compound: Cc1cccc(NC(=O)Nc2ccc(Oc3ncnc4sc5c(c34)CCCC5)cc2)c1
inhibition at 10 µM (HUVEC): 82%
inhibition in vivo at 10 mg/kg (Ehrlich): 86.4%

Compound: Fc1cccc(COc2ccc(Nc3ncnc4sc5c(c34)CCCC5)cc2Cl)c1
inhibition [2]: 93%
inhibition at 10 µM (SK-OV-3): 80.6%
inhibition at 10 µM (MDA-MB-468): 68.2%
inhibition [3]: 84%
inhibition at 10 µM (NCI-H522): 56%

Compound: O=C(Nc1ccccc1)Nc1ccc(Oc2ncnc3sc4c(c23)CCCC4)cc1
inhibition at 10 µM (HUVEC): 64.3%

Compound: Fc1cccc(COc2ccc(Nc3ncnc4sc5c(c34)CCCC5)cc2)c1
inhibition [2]: 93%
inhibition [3]: 84%

Compound: c1ccc(COc2ccc(Nc3ncnc4sc5c(c34)CCCC5)cc2)cc1
inhibition [2]: 93%
inhibition [3]: 84%

The next lines start with the values.

inhibition [1]: 46%
Compound: O=C(Nc1ccc(Cl)cc1)Nc1ccc(Oc2ncnc3sc4c(c23)CCCC4)cc1

IC50 [4]: 0.17 µM
IC50 (MCF7): 6.52 µM
Compound: O=C(/C=C/c1ccc(Cl)cc1)c1ccc(Nc2ncnc3sc4c(c23)CCCC4)cc1

IC50 [4]: 0.15 µM
IC50 (MCF7): 8.2 µM
Compound: COc1ccc(/C=C/C(=O)c2ccc(Nc3ncnc4sc5c(c34)CCCC5)cc2)cc1OC

IC50 [4]: 0.32 µM
IC50 (MCF7): 20.2 µM
Compound: O=C(/C=C/c1ccccc1)c1ccc(Nc2ncnc3sc4c(c23)CCCC4)cc1
